Experimental data: patent US10858364B2, “Imidazopyrazine inhibitors of Bruton's tyrosine kinase” (Acerta Pharma B.V., priority 2016, dated 2020)

How the values were obtained:
BTK = BTK (Homo sapiens (Human), UniProt Q06187); assay: BTK target occupancy ELISA in Ramos B cells; type: cell-based; details: 2h incubation
Method: Ramos B cells (ATCC, cat no. CRL-1923) were plated in 24-wells culture plates at 2×10^6 cells per well in a total volume of 900 μL DMEMF12+10% FBS+2 mM L-Glutamine+Pen/Strep. Allow the cells to rest 1 h at 5-7% CO2 and 37° C. Serial dilutions log 10 from 10 mM to 316 nM of test compounds are made in 100% DMSO, followed by a 100-fold dilution into culture medium. For each well, 100 μL was then transferred to well plate containing 900 μL of Ramos B cells. Final compound concentration range in the assay varied from 10 μM to 0.316 nM, with a final DMSO concentration of 0.1% and incubated at 5-7% CO2 and 37° C. for 2h. Afterwards, cells are collected for the measurement of the BTK target occupancy using the BTK target occupancy ELISA as outlined below. The percent of drug-bound BTK in Ramos B cell samples was determined by an ELISA based method as follows: OptiPlate 96-well plates (Perkin Elmer) were coated with 125 ng/well anti-BTK Ab (BD Biosciences) and blocked with BSA (Sigma-Aldrich). […] One hundred L/well of SuperSignal ELISA Femto Substrate (ThermoFisher Scientific) was added and then chemiluminescence was measured after 1 minute (EnVision® plate reader; PerkinElmer). The percent of BTK occupancy for each sample was calculated relative to the vehicle control. […] Ramos cells were incubated with a dose range of M27 and BTK target occupancy was determined by ELISA.

TXK = TXK (Homo sapiens (Human), UniProt P42681); assay: DiscoveRx Kd dose response, TXK; type: binding
Sequence of TXK (P42681 whole entry): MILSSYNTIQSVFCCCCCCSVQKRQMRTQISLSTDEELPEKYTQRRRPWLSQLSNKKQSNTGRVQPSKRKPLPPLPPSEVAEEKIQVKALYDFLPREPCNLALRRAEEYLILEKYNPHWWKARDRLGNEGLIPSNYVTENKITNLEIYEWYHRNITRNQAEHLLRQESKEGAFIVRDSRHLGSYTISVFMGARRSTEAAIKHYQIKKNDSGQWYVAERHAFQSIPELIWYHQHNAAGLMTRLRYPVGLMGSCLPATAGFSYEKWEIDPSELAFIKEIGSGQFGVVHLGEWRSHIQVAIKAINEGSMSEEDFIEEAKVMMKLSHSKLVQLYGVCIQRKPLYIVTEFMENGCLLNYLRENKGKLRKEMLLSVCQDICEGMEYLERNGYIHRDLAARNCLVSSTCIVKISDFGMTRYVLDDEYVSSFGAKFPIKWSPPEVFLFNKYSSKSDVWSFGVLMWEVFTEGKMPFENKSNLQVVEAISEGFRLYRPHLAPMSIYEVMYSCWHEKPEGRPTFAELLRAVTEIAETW
Method: Kinase profiling was performed with M27 was done at DiscoveRx at a single dose of 1 μM on all available kinases (KINOMEscan). The overall kinase selectivity score is in Table 6. […] Kinases inhibited >65% at 1 μM for M27 were followed up with a dose response at DiscoveRx. The M27 had IC50 values <1 μM for almost the same set of kinases with exception of TXK, but with additional inhibition of BRK (PTK6).

Sequence of BTK (Q06187 whole entry): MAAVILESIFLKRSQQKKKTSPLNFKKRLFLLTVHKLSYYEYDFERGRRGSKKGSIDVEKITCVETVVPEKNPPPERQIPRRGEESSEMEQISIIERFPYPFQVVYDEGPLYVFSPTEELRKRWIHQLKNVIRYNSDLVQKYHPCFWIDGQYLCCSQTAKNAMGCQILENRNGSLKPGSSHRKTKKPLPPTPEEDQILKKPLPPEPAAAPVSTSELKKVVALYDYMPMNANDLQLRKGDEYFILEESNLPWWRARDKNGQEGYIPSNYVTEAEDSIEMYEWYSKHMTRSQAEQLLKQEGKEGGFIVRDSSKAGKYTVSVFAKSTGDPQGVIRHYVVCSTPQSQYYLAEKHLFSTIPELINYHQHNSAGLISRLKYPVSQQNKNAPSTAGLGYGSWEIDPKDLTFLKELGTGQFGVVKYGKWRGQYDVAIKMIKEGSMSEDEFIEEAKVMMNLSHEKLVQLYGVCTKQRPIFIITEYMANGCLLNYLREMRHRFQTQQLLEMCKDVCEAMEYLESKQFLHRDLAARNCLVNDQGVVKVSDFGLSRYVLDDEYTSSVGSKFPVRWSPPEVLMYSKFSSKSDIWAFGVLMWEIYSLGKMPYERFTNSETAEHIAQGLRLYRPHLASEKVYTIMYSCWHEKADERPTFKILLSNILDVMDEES

IC50 (BTK): 39 nM
Kd (TXK): 1100 nM
Structure (SMILES): CC#CC(=O)NCCCC(=O)c1nc(-c2ccc(C(=O)Nc3ccccn3)cc2)c2c(N)nccn12 [Formula (I), 4-(8-amino-3-(4-(but-2-ynamido)butanoyl)imidazo[1,5-a]pyrazin-1-yl)-N-(pyridin-2-yl)benzamide]
